The target in the experiment is human KDR protein in HEK-293 cells (Homo sapiens (Human), UniProt P35968). Briefly: KDR Cell Assay (phospho-KDR in HEK-293 cells expressing inducible KDR). It is filed as cell-based. To be noted: pKDR Cell HEK 10% FBS IC50, HEK-293 cells expressing inducible KDR, VEGF stimulated. Put shortly:
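HEK-293 cells with inducible human KDR were treated with compound for 1 h in DMEM (0.25% DMSO final), then lysed. Phospho-KDR was quantified by Meso Scale immunoassay, expressed as percent of control, and IC50 taken where a 4-parameter logistic fit crossed 50 POC.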

Molecules are shown by their SMILES.

One may read the IC50 as the concentration that inhibits the measured activity by half.

Sequence of human KDR protein in HEK-293 cells (P35968 20-1356): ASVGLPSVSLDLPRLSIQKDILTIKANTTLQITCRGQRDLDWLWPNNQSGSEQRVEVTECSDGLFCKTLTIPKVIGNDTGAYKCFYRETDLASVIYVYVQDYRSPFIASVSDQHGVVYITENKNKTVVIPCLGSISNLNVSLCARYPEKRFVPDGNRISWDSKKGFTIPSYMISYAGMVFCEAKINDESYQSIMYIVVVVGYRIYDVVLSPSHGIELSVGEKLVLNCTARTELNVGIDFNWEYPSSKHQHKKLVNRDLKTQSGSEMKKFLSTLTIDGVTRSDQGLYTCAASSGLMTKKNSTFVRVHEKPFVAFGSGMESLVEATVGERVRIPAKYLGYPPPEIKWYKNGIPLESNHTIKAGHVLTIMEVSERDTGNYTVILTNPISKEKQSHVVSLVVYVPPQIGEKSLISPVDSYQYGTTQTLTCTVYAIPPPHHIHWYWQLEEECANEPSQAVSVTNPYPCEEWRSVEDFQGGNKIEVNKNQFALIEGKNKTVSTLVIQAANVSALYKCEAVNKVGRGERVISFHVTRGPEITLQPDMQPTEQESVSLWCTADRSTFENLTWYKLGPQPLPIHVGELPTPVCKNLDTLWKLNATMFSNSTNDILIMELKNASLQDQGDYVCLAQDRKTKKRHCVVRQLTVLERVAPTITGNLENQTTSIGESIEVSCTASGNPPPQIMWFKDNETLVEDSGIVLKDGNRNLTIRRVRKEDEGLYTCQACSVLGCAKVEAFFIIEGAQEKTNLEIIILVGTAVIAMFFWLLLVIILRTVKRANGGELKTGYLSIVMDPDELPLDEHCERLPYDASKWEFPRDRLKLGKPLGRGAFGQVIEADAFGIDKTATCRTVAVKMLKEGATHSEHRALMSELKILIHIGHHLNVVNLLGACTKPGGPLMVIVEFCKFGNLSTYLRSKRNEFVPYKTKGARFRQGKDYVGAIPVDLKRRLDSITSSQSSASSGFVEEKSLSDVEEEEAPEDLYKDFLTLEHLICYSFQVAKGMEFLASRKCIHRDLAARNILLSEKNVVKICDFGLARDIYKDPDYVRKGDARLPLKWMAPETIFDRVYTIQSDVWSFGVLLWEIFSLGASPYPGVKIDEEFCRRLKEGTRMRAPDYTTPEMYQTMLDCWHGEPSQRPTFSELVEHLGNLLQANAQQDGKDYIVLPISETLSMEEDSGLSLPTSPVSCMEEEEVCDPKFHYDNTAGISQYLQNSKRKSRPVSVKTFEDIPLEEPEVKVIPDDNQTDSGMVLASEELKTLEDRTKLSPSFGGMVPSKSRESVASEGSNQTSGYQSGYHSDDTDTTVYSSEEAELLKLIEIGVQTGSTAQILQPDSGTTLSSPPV

For the molecule `Cn1cc(-c2cc(-c3ccc(N4CCN(CCc5ccccc5)CC4)nc3)c3c(C#N)cnn3c2)cn1` [Example 411, 6-(1-methyl-1H-pyrazol-4-yl)-4-(6-(4-phenethylpiperazin-1-yl)pyridin-3-yl)pyrazolo[1,5-a]pyridine-3-carbonitrile], the IC50 was found to be 0.263 µM.

As to `Cn1cc(-c2cc(-c3ccc(N4CCN(CCc5ccccn5)CC4)nc3)c3c(C#N)cnn3c2)cn1` [Example 395, 6-(1-methyl-1H-pyrazol-4-yl)-4-(6-(4-(2-(pyridine-2-yl)ethyl)piperazin-1-yl)pyridin-3-yl)pyrazolo[1,5-a]pyridine-3-carbonitrile], the IC50 came to 0.49 µM.

`Cn1cc(-c2cc(-c3ccc(N4CCC(Nc5ccccc5)CC4)nc3)c3c(C#N)cnn3c2)cn1` [Example 507, 6-(1-methyl-1H-pyrazol-4-yl)-4-(6-(4-(phenylamino)piperidin-1-yl)pyridin-3-yl)pyrazolo[1,5-a]pyridine-3-carbonitrile] returned an IC50 of 0.0249 µM.

Turning to `Cc1cc(-c2cc(-c3cnn(C)c3)cn3ncc(C#N)c23)cnc1N1CCN(C(=O)[C@H](O)c2ccccc2)CC1` [Example 278, (R)-4-(6-(4-(2-hydroxy-2-phenylacetyl)piperazin-1-yl)-5-methylpyridin-3-yl)-6-(1-methyl-1H-pyrazol-4-yl)pyrazolo[1,5-a]pyridine-3-carbonitrile], under “10% FBS”, the IC50 was determined as 0.138 µM.

As to `Cn1cc(-c2cc(-c3ccc(N4CCCC4)nc3)c3c(Cl)cnn3c2)cn1` [Example 339, 3-chloro-6-(1-methyl-1H-pyrazol-4-yl)-4-(6-(pyrrolidin-1-yl)pyridin-3-yl)pyrazolo[1,5-a]pyridine], for the setting “10% FBS”, the IC50 worked out at 3.7 µM.

`Cn1ccc(-c2cc(-c3ccc(N4CCN(C(=O)[C@H](O)c5ccccc5)CC4)nc3)c3c(C#N)cnn3c2)n1` [Example 272, (R)-4-(6-(4-(2-hydroxy-2-phenylacetyl)piperazin-1-yl)pyridin-3-yl)-6-(1-methyl-1H-pyrazol-3-yl)pyrazolo[1,5-a]pyridine-3-carbonitrile] came in with an IC50 (10% FBS) of 0.575 µM.

For the setting “10% FBS”, `C[C@@H](C(=O)N1CCN(c2ccc(-c3cc(-c4cnn(C)c4)cn4ncc(C#N)c34)cn2)CC1)c1ccccc1` [Example 14, (R)-6-(1-methyl-1H-pyrazol-4-yl)-4-(6-(4-(2-phenylpropanoyl)piperazin-1-yl)pyridin-3-yl)pyrazolo[1,5-a]pyridine-3-carbonitrile] returned an IC50 of 1.78 µM.

The molecule `N#Cc1cnn2cc(-c3cnn(C(F)F)c3)cc(-c3ccc(N4CCN(C(=O)[C@H](O)c5ccccc5)CC4)nc3)c12` [Example 268, (R)-6-(1-(difluoromethyl)-1H-pyrazol-4-yl)-4-(6-(4-(2-hydroxy-2-phenylacetyl)piperazin-1-yl)pyridin-3-yl)pyrazolo[1,5-a]pyridine-3-carbonitrile] displayed an IC50 (10% FBS) of 0.497 µM.

`Cn1cc(-c2cc(-c3ccc(N4CCN(C(=O)N5CC6CC6C5)CC4)nc3)c3c(C#N)cnn3c2)cn1` (stereo not drawn) [Example 380, 4-(6-(4-(3-azabicyclo[3.1.0]hexane-3-carbonyl)piperazin-1-yl)pyridin-3-yl)-6-(1-methyl-1H-pyrazol-4-yl)pyrazolo[1,5-a]pyridine-3-carbonitrile] showed an IC50 of 0.555 µM.

As to `Cn1cc(-c2cc(-c3ccc(N4CCN(C(=O)N5C6CCC5CC6)CC4)nc3)c3c(C#N)cnn3c2)cn1` [Example 95, 4-(6-(4-(7-azabicyclo[2.2.1]heptane-7-carbonyl)piperazin-1-yl)pyridin-3-yl)-6-(1-methyl-1H-pyrazol-4-yl)pyrazolo[1,5-a]pyridine-3-carbonitrile], where the note is “10% FBS”, the IC50 was 1.31 µM.

For the setting “10% FBS”, `CO[C@H]1CCN(C(=O)N2CCN(c3ncc(-c4cc(-c5cnn(C)c5)cn5ncc(C#N)c45)cn3)CC2)C1` [Example 286, (S)-4-(2-(4-(3-methoxypyrrolidine-1-carbonyl)piperazin-1-yl)pyrimidin-5-yl)-6-(1-methyl-1H-pyrazol-4-yl)pyrazolo[1,5-a]pyridine-3-carbonitrile] gave an IC50 of 4.83 µM.

`Cn1cc(-c2cc(-c3ccc(N4CCN(C(=O)N5CCC[C@H]5C#N)CC4)nc3)c3c(C#N)cnn3c2)cn1` [Example 112, (S)-4-(6-(4-(2-cyanopyrrolidine-1-carbonyl)piperazin-1-yl)pyridin-3-yl)-6-(1-methyl-1H-pyrazol-4-yl)pyrazolo[1,5-a]pyridine-3-carbonitrile] yielded an IC50 (10% FBS) of 0.869 µM.

Consider `Cn1cc(-c2cc(-c3ccc(N4CCC5(CC4)CN(C(=O)C4CC4)C5)nc3)c3c(C#N)cnn3c2)cn1` [Example 492, 4-(6-(2-(cyclopropanecarbonyl)-2,7-diazaspiro[3.5]nonan-7-yl)pyridin-3-yl)-6-(1-methyl-1H-pyrazol-4-yl)pyrazolo[1,5-a]pyridine-3-carbonitrile], for which the IC50 stood at 0.563 µM.

In turn, `Cn1cc(-c2cc(-c3ccc(N4CCC5(CC4)CN(C(=O)C4CCCCC4)C5)nc3)c3c(C#N)cnn3c2)cn1` [Example 495, 4-(6-(2-(cyclohexanecarbonyl)-2,7-diazaspiro[3.5]nonan-7-yl)pyridin-3-yl)-6-(1-methyl-1H-pyrazol-4-yl)pyrazolo[1,5-a]pyridine-3-carbonitrile] came in with an IC50 of 0.771 µM.

Molecule `Cn1cc(-c2cc(-c3ccc(N4CCC5(CC4)CN(C(=O)N4CCCC4)C5)nc3)c3c(C#N)cnn3c2)cn1` [Example 500, 6-(1-methyl-1H-pyrazol-4-yl)-4-(6-(2-(pyrrolidine-1-carbonyl)-2,7-diazaspiro[3.5]nonan-7-yl)pyridin-3-yl)pyrazolo[1,5-a]pyridine-3-carbonitrile] displayed an IC50 of 0.458 µM.

Take `Cn1cc(-c2cc(-c3ccc(N4CCN(S(=O)(=O)N5CCCC5)CC4)nc3)c3c(C#N)cnn3c2)cn1` [Example 138, 6-(1-methyl-1H-pyrazol-4-yl)-4-(6-(4-(pyrrolidin-1-ylsulfonyl)piperazin-1-yl)pyridin-3-yl)pyrazolo[1,5-a]pyridine-3-carbonitrile]: the IC50 (10% FBS) was found to be 0.0161 µM.

On to `Cn1cc(-c2cc(-c3ccc(N4CCN(C(=O)Cc5ccccn5)CC4)nc3)c3c(C#N)cnn3c2)cn1` [Example 5, 6-(1-methyl-1H-pyrazol-4-yl)-4-(6-(4-(2-(pyridin-2-yl)acetyl)piperazin-1-yl)pyridin-3-yl)pyrazolo[1,5-a]pyridine-3-carbonitrile], for which the IC50 (10% FBS) was 0.243 µM.

The molecule `Cn1cc(-c2cc(-c3ccc(N4CCN(C(=O)C(CO)c5ccccc5)CC4)nc3)c3c(C#N)cnn3c2)cn1` (stereo not drawn) [Example 16, 4-(6-(4-(3-hydroxy-2-phenylpropanoyl)piperazin-1-yl)pyridin-3-yl)-6-(1-methyl-1H-pyrazol-4-yl)pyrazolo[1,5-a]pyridine-3-carbonitrile] gave an IC50 (10% FBS) of 0.435 µM.

In turn, `COc1ncc(C(=O)N2C3CC2CN(c2ccc(-c4cc(-c5cnn(C)c5)cn5ncc(C#N)c45)cn2)C3)cc1F` [Example 688, 4-(6-(6-(5-fluoro-6-methoxynicotinoyl)-3,6-diazabicyclo[3.1.1]heptheptan-3-yl)pyridin-3-yl)-6-(1-methyl-1H-pyrazol-4-yl)pyrazolo[1,5-a]pyridine-3-carbonitrile] displayed an IC50 of 0.0509 µM.

`Cn1cc(-c2cc(-c3ccc(N4CCN(C(=O)C5(c6cccc(Cl)c6)CC5)CC4)nc3)c3c(C#N)cnn3c2)cn1` [Example 356, 4-(6-(4-(1-(3-chlorophenyl)cyclopropane-1-carbonyl)piperazin-1-yl)pyridin-3-yl)-6-(1-methyl-1H-pyrazol-4-yl)pyrazolo[1,5-a]pyridine-3-carbonitrile 2,2,2-trifluoroacetate]: the IC50 (10% FBS) is 0.126 µM.

Take `COc1ccc(CN2CCN(c3ccc(-c4cc(-c5cnn(C)c5)cn5ncc(C#N)c45)cn3)CC2)cn1` [Example 474, 4-(6-(4-((6-methoxypyridin-3-yl)methyl)piperazin-1-yl)pyridin-3-yl)-6-(1-methyl-1H-pyrazol-4-yl)pyrazolo[1,5-a]pyridine-3-carbonitrile]: inhibition was half-maximal at 0.305 µM (IC50).

As to `Cn1cc(-c2cc(-c3ccc(N4CCN(C(=O)N5CCCC5)CC4)nc3)c3c(C#N)cnn3c2)cn1` [Example 125, 6-(1-methyl-1H-pyrazol-4-yl)-4-(6-(4-(pyrrolidine-1-carbonyl)piperazin-1-yl)pyridin-3-yl)pyrazolo[1,5-a]pyridine-3-carbonitrile], the IC50 (10% FBS) was 0.616 µM.

Turning to `Cn1cc(-c2cc(-c3ccc(N4CCN([C@@H]5COC[C@H]5O)CC4)nc3)c3c(C#N)cnn3c2)cn1` [Example 159, 4-(6-(4-((3r,4s)-4-hydroxytetrahydrofuran-3-yl)piperazin-1-yl)pyridin-3-yl)-6-(1-methyl-1H-pyrazol-4-yl)pyrazolo[1,5-a]pyridine-3-carbonitrile], half-maximal inhibition (10% FBS) (IC50) required 1.3 µM.

The molecule `CC(=O)N1CCN(c2ccc(-c3cc(-c4cnn(C)c4)cn4ncc(C#N)c34)cc2)CC1` [Example 295, 4-(4-(4-acetylpiperazin-1-yl)phenyl)-6-(1-methyl-1H-pyrazol-4-yl)pyrazolo[1,5-a]pyridine-3-carbonitrile] registered an IC50 (10% FBS) of 0.72 µM.

`Cc1cc(-c2cc(-c3ccc(N4CCN(Cc5ccccc5)CC4)nc3)c3c(C#N)cnn3c2)on1` [Example 629, 4-(6-(4-benzylpiperazin-1-yl)pyridine-3-yl)-6-(3-methylisoxazol-5-yl)pyrazolo[1,5-a]pyridine-3-carbonitrile] displayed an IC50 not below 5 µM.

For `CC(C)O[C@@H]1CCN(C(=O)N2CCN(c3ccc(-c4cc(-c5cnn(C)c5)cn5ncc(C#N)c45)cn3)CC2)C1` [Example 107, (R)-4-(6-(4-(3-isopropoxypyrrolidine-1-carbonyl)piperazin-1-yl)pyridin-3-yl)-6-(1-methyl-1H-pyrazol-4-yl)pyrazolo[1,5-a]pyridine-3-carbonitrile], under “10% FBS”, the IC50 turned out to be 0.893 µM.

For the setting “10% FBS”, `Cn1cc(-c2cc(-c3ccc(N4CCN(C(=O)N5CCCC5(C)C)CC4)nc3)c3c(C#N)cnn3c2)cn1` [Example 124, 4-(6-(4-(2,2-dimethylpyrrolidine-1-carbonyl)piperazin-1-yl)pyridin-3-yl)-6-(1-methyl-1H-pyrazol-4-yl)pyrazolo[1,5-a]pyridine-3-carbonitrile] displayed an IC50 of 1.86 µM.

Values taken from patent US10023570B2 (Array BioPharma, Inc., priority 2015, dated 2018).
